PubChem BioAssay AID2060893 (Molecular Pharmacology Branch, DTP, NCI, 2025)

Test system: K86415-001-R-J1-PDC complex spheroids, viability
Assay: Anticancer human tumor K86415-001-R-J1-PDC patient-derived lung adenocarcinoma cell line growth inhibition [RAS]
Conditions: for IC50: curve of first compound; for viability, T/C: stronger effect = lower value
How it was run: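 Tumour cells grown as complex spheroids with HUVEC endothelial cells and mesenchymal stem cells, treated with RAS pathway inhibitor combinations. Each agent spans half-log steps from near clinical Cmax, or 10 microM where Cmax is unknown.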
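Also: spheroids exposed to agents for seven days before readout.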

For `CC(=O)OC12COC1CC(O)C1(C)C(=O)C(O)C3=C(C)C(OC(=O)C(O)C(NC(=O)OC(C)(C)C)c4ccccc4)CC(O)(C(OC(=O)c4ccccc4)C21)C3(C)C` (centres undefined) + C=CC(=O)N1CCN(c2nc(OCC3CCCN3C)nc3c(F)c(-c4nc(N)cc(C)c4C(F)(F)F)c(Cl)cc23)C(C)C1, the IC50 (second compound 0.00316 µM) was under 0.0316 µM, the IC50 (second compound 0.01 µM) was under 0.0316 µM and the IC50 (second compound 0.0316 µM) was under 0.0316 µM. It also gave an IC50 (second compound 0.1 µM) of under 0.0316 µM, an IC50 (second compound 0.316 µM) of under 0.0316 µM and an IC50 (second compound 1 µM) of under 0.0316 µM. For the same compound, the viability, T/C (second compound 0.00316 µM, first compound 0.0316 µM) was 15.6%, the viability, T/C (second compound 0.00316 µM, first compound 0.1 µM) was 15.6% and the viability, T/C (second compound 0.00316 µM, first compound 0.316 µM) was 16.5%. For the same compound, the viability, T/C (second compound 0.00316 µM, first compound 1 µM) was 15.9%, the viability, T/C (second compound 0.00316 µM, first compound 3.16 µM) was 15.5% and the viability, T/C (second compound 0.00316 µM, first compound 10 µM) was 15.2%. It also gave a viability, T/C (second compound 0.01 µM, first compound 0.0316 µM) of 13.9%, a viability, T/C (second compound 0.01 µM, first compound 0.1 µM) of 14.1% and a viability, T/C (second compound 0.01 µM, first compound 0.316 µM) of 12.5%. For the same compound, the viability, T/C (second compound 0.01 µM, first compound 1 µM) was 13.2%, the viability, T/C (second compound 0.01 µM, first compound 3.16 µM) was 10.8% and the viability, T/C (second compound 0.01 µM, first compound 10 µM) was 9.16%. It also gave a viability, T/C (second compound 0.0316 µM, first compound 0.0316 µM) of 11.1%, a viability, T/C (second compound 0.0316 µM, first compound 0.1 µM) of 10.8% and a viability, T/C (second compound 0.0316 µM, first compound 0.316 µM) of 9.94%. It also gave a viability, T/C (second compound 0.0316 µM, first compound 1 µM) of 9.79%, a viability, T/C (second compound 0.0316 µM, first compound 3.16 µM) of 10.3% and a viability, T/C (second compound 0.0316 µM, first compound 10 µM) of 8.13%. The viability, T/C (second compound 0.1 µM, first compound 0.0316 µM) was 9.79%, the viability, T/C (second compound 0.1 µM, first compound 0.1 µM) was 11.2% and the viability, T/C (second compound 0.1 µM, first compound 0.316 µM) was 9.84%. For the same compound, the viability, T/C (second compound 0.1 µM, first compound 1 µM) was 9.57%, the viability, T/C (second compound 0.1 µM, first compound 3.16 µM) was 11.5% and the viability, T/C (second compound 0.1 µM, first compound 10 µM) was 9.04%. The viability, T/C (second compound 0.316 µM, first compound 0.0316 µM) was 7.89%, the viability, T/C (second compound 0.316 µM, first compound 0.1 µM) was 9.45% and the viability, T/C (second compound 0.316 µM, first compound 0.316 µM) was 11.5%. It also gave a viability, T/C (second compound 0.316 µM, first compound 1 µM) of 9.36%, a viability, T/C (second compound 0.316 µM, first compound 3.16 µM) of 10.3% and a viability, T/C (second compound 0.316 µM, first compound 10 µM) of 8.4%. It also gave a viability, T/C (second compound 1 µM, first compound 0.0316 µM) of 8.13%, a viability, T/C (second compound 1 µM, first compound 0.1 µM) of 10.6% and a viability, T/C (second compound 1 µM, first compound 0.316 µM) of 12.8%. It also gave a viability, T/C (second compound 1 µM, first compound 1 µM) of 9.39%, a viability, T/C (second compound 1 µM, first compound 3.16 µM) of 11.2% and a viability, T/C (second compound 1 µM, first compound 10 µM) of 10.5%.

Work on `CC1(C)CCC(Nc2ncc(C(F)(F)F)c(-c3c[nH]c4c(P(C)(C)=O)c(C#N)ccc34)n2)CN1` (centres undefined) + C=CC(=O)N1CCN(c2nc(OCC3CCCN3C)nc3c(F)c(-c4nc(N)cc(C)c4C(F)(F)F)c(Cl)cc23)C(C)C1 yielded an IC50 (second compound 0.00316 µM) of under 0.000949 µM, an IC50 (second compound 0.01 µM) of under 0.000949 µM and an IC50 (second compound 0.0316 µM) of under 0.000949 µM. The IC50 (second compound 0.1 µM) was under 0.000949 µM, the IC50 (second compound 0.316 µM) was under 0.000949 µM and the IC50 (second compound 1 µM) was under 0.000949 µM. The viability, T/C (second compound 0.00316 µM, first compound 0.000949 µM) was 18.3%, the viability, T/C (second compound 0.00316 µM, first compound 0.003 µM) was 22.2% and the viability, T/C (second compound 0.00316 µM, first compound 0.00949 µM) was 18.7%. The viability, T/C (second compound 0.00316 µM, first compound 0.03 µM) was 20.3%, the viability, T/C (second compound 0.00316 µM, first compound 0.0949 µM) was 22.7% and the viability, T/C (second compound 0.00316 µM, first compound 0.3 µM) was 22.8%. It also gave a viability, T/C (second compound 0.01 µM, first compound 0.000949 µM) of 15.2%, a viability, T/C (second compound 0.01 µM, first compound 0.003 µM) of 12.7% and a viability, T/C (second compound 0.01 µM, first compound 0.00949 µM) of 16.9%. For the same compound, the viability, T/C (second compound 0.01 µM, first compound 0.03 µM) was 13.3%, the viability, T/C (second compound 0.01 µM, first compound 0.0949 µM) was 15.5% and the viability, T/C (second compound 0.01 µM, first compound 0.3 µM) was 20.2%. The viability, T/C (second compound 0.0316 µM, first compound 0.000949 µM) was 12.8%, the viability, T/C (second compound 0.0316 µM, first compound 0.003 µM) was 14% and the viability, T/C (second compound 0.0316 µM, first compound 0.00949 µM) was 12.7%. It also gave a viability, T/C (second compound 0.0316 µM, first compound 0.03 µM) of 14.5%, a viability, T/C (second compound 0.0316 µM, first compound 0.0949 µM) of 15.6% and a viability, T/C (second compound 0.0316 µM, first compound 0.3 µM) of 16.5%. The viability, T/C (second compound 0.1 µM, first compound 0.000949 µM) was 11.2%, the viability, T/C (second compound 0.1 µM, first compound 0.003 µM) was 12.5% and the viability, T/C (second compound 0.1 µM, first compound 0.00949 µM) was 12.7%. For the same compound, the viability, T/C (second compound 0.1 µM, first compound 0.03 µM) was 13.1%, the viability, T/C (second compound 0.1 µM, first compound 0.0949 µM) was 13.9% and the viability, T/C (second compound 0.1 µM, first compound 0.3 µM) was 14.9%. The viability, T/C (second compound 0.316 µM, first compound 0.000949 µM) was 9.63%, the viability, T/C (second compound 0.316 µM, first compound 0.003 µM) was 13.1% and the viability, T/C (second compound 0.316 µM, first compound 0.00949 µM) was 12.1%. The viability, T/C (second compound 0.316 µM, first compound 0.03 µM) was 12.8%, the viability, T/C (second compound 0.316 µM, first compound 0.0949 µM) was 13.8% and the viability, T/C (second compound 0.316 µM, first compound 0.3 µM) was 13.4%. It also gave a viability, T/C (second compound 1 µM, first compound 0.000949 µM) of 10.9%, a viability, T/C (second compound 1 µM, first compound 0.003 µM) of 11.1% and a viability, T/C (second compound 1 µM, first compound 0.00949 µM) of 13.6%. It also gave a viability, T/C (second compound 1 µM, first compound 0.03 µM) of 13.8%, a viability, T/C (second compound 1 µM, first compound 0.0949 µM) of 15.9% and a viability, T/C (second compound 1 µM, first compound 0.3 µM) of 14.9%.
